Results reported in US10046050B2, “Targeting immunotherapy for amyloidosis” (UNIVERSITY OF TENNESSEE RESEARCH FOUNDATION, priority 2014, dated 2018).
Like-named read-outs stand apart in the source and are kept apart here.

Assays:
[1] = test system: mAb clones 4, 5, 12, and 13; test: ELISA capture of negative control biotinylated peptides by plate-adsorbed mAb clones; format: binding, murine; conditions: 100 ng/well
Description: More particularly, 96-well ELISA microplates were coated overnight with the indicated mAbs (500 ng/well), the wells were blocked with PBS/BSA solution before addition of biotinylated p5+14 peptide (100 ng/well). Biotinylated peptides, p5R and p31G (aka p5G) were used as a negative control. Following a wash step, detection of captured peptide was achieved by addition of europium-conjugated streptavidin as described above.

[2] = biological target: T1, human transthyretin (TTR) amyloid-laden tissue (Homo sapiens, UniProt P02766); test: Pre-targeting immunohistochemistry on ATTR-laden tissue sections; format: binding
T1 construct: from tissue
Description: The pre-targeting efficacy of peptide p5+14 in conjunction with mAb clones 4, 5, 12, or 13 was further evaluated using human ATTR-laden formalin-fixed paraffin embedded tissue sections. More particularly, six micrometer-thick sections, cut from formalin-fixed, paraffin embedded human transthyretin (TTR) amyloid-laden tissue, were subjected to antigen retrieval by incubation with CitraPlus (BioGenex, San Ramon, Calif.) for 30 min at 90° C. Peptide p5+14 was added to the tissue at ˜3 μg/mL (30× molar excess over mAb) and incubated overnight at 4° C. Unbound reagent was removed by washing in PBST for 30 min. Tissues (with or without p5+14) were immunostained with a 3 μg/mL solution of biotinylated anti-peptide mAb (clones 4, 5, 12, or 13). Slides were developed by addition of streptavidin-HRP (Vectastain Elite ABC kit, Vector Labs) followed by 3,3′-diaminobezidene (Vector Labs).
By way of positive control, a biotinylated-p5+14 peptide (without mAb) was used to directly stain TTR amyloid in this tissue (red arrows, below), as described above.
To confirm the presence and distribution of amyloid in the tissue a consecutive slide was stained with Congo red. Briefly, tissues were incubated in Congo red solution (0.8% w/v Congo red, 0.2% KOH w/v in 80% ethanol) for 1 h at RT. Sections were then washed in water and counterstained by suspending in Mayer's hematoxylin for 2 min. […]

[3] = test system: synthetic and naturally-occurring amyloid samples; test: Pull down assay of ^125I-labeled peptides; format: binding
Description: To evaluate the binding of p66 and p5+14 to synthetic and naturally-occurring amyloid, peptides p66 or p5+14 were radiolabeled with iodine-125 (I-125, ^125I) using oxidation with chloramine T (1 mg/ml in water freshly made. Free 1-125 was removed from the reaction mixture by size exclusion chromatography using a Sephadex G-25 solid phase and a 0.1% (w/v) gelatin in PBS mobile phase. Fractions of ˜250 μl were collected and the radioactivity in each measured using a gamma counter (Packard Cobra II auto-gamma counter). Peptide fractions with peak radioactivity were pooled and used for the “pull-down” assays.
For the pull down assay, ^125I-labeled peptide binding to murine: (m) AA and wild type (WT) liver homogenates (25 μl); rVλ6Wil (AL), Aβ(1-40) and islet amyloid polypeptide (IAPP) synthetic fibrils (25 μg), and; transthyretin-associated (ATTR), ALκ4-Cab and ALλ1-Ship human amyloid extracts (50 μg). The ^125I-peptides were prepared in PBST (0.15 M NaCl) or PBST with 1 M NaCl. Ten μl (˜5 ng, ˜100,000 counts per min [cpm]) of the ^125I-peptide solution was added to each test sample in a 200 μl volume. The reaction mixtures were rotated for 1 h at RT, then centrifuged twice at 16,000×g for 10 min. After each step the supernatants were removed and collected in test tubes. The pellets, obtained following the second spin were resuspended in PBST. The radioactivity in both the supernatant and pellet samples were measured using a Packard Cobra II auto-gamma counter. The bound peptide, expressed as % total was calculated according to: Bound peptide (% total)=(Pellet cpm)/(Pellet cpm+Supernatant cpm)

AA amyloid = biological target: T2, AA amyloid (Mus musculus, UniProt P05367); test: In vivo pre-targeting of ^125I-11-1F4 to systemic AA amyloid; set-up: species or system mice; conditions: 24 h post injection of 11-1F4 mAb; peptide given 24 h before mAb
T2 construct: from tissue; host or cells: organs of living H2-L^d-huIL-6 Tg Balb/c mice after AEF injection
T2 sequence (P05367 20-94 limits assumed): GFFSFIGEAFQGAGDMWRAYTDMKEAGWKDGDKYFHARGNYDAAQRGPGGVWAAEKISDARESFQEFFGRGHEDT
Description: Systemic visceral AA amyloidosis was induced in H2-L^d-huIL-6 Tg Balb/c transgenic mice that constitutively express the human interleukin-6 transgene, by iv injection of 10 μg of purified, splenic AA amyloid (amyloid enhancing factor; AEF) in 100 μL of sterile phosphate-buffered saline (PBS). Peptide p66 pre-targeting of ^125I-11-1F4 was evaluated in mice at 3-4 wk post AEF injection when amyloid load was modest.
Three cohorts of 3 mice, each received ˜400 μg of unlabeled peptide p66, and a second group of 3 cohorts were given peptide p5+14 as a control. Twenty-four hours after the peptide injection all mice were administered ˜150 μCi (˜20 μg) of ^125I-11-1F4 IV in the lateral tail vein. One group of p66 mice (n=3) and one group of p5+14 control mice (n=3) were euthanized at 24, 48 and 72 h post injection of 11-1F4 mAb and the organs harvested at necropsy for fixation, followed by microautoradiographic and immunohistochemical analyses.
For autoradiography, 6-μm-thick sections were cut from formalin-fixed, paraffin-embedded blocks, containing tissues from mice that had received […]. The sections were placed on Plus microscope slides (Fisher Scientific), dipped in NTB-2 emulsion (Eastman Kodak), stored in the dark, and developed after a 4 day exposure. Each section was counterstained with hematoxylin and eosin.
Formalin-fixed paraffin embedded tissue sections, from mice treated with p66 peptope or peptide p5+14 were subjected to antigen retrieval using citrate buffer (pH 6; Dako) 30 min at 90° C. The tissue was then blocked with hydrogen peroxide, casein, and avidin and biotin, per manufacturer's instructions. The biotinylated peptide-reactive mAb (clone 12-3 [described above]) was then added (1.6 μg/mL in PBS) an the samples incubated for 2 h at RT, O/N at 4° C., followed by another 2 h period at RT. […]
The presence of macrophages was detected by staining with mAb Iba-1 (1:8000 diln) followed by addition of biotinylated rabbit anti-mouse secondary reagent (Vector Rabbit Elite kit). […]

mAb 7D8 = test: Surface plasmon resonance of mAb 7D8 binding to amino-coupled peptopes; conditions: 7D8 2.7 nM; for Kd: read-out: KD
Description: Analyses were performed using a BIAcore X surface plasmon resonance instrument (GE Healthcare) and all reagents were obtained from GE Healthcare. For chip preparation, the peptides were attached to CM-5 chips using the amino-coupling method supplied with the instrument software. Briefly, chips were activated by injection (35 μL) of a mixture of ECD/NHS at a flow rate of 5 μL/min. Immediately thereafter, 35 μL of the test peptide (peptope p75, p76, p77, or p78), diluted to 1 μg/mL in NaOAc buffer, pH 5.5, was injected. After peptide coupling, the remaining active groups on the chip were blocked by injection of 35 μL of 1 M ethanolamine-HCl pH 8.5. Test peptides p75, p76, p77, or p78 were coupled to the Fc-1 channel and peptide p5, which served as a control, was coupled to the Fc-2 channel. A sensorgram was initiated on each chip in HBS-EP buffer at 10 μL per min. An initial regeneration step consisting of a 20 μL injection of pH 2.5 glycine buffer was performed and the baseline allowed to equilibrate. Antibody 7D8 was diluted to a stock of 10 μg/mL in HBS-EP buffer which was further diluted to a 0.4 μg/mL (˜2.7 nM) working dilution immediately before injection. The antibody was injected (50 μL) and the data collected for 200 seconds using a delayed wash cycle. The chip was subjected to a regeneration step before the next test injection. Binding data were extracted from the sensorgram, aligned, and analyzed using the BIAevaluation software by fitting to the following binding models (i) Langmuir, (ii) Langmuir with mass transfer, and (iii) Interaction of a bivalent analyte [A+B→AB; AB+B→AB2].

Substance | Rmax (RU) (mAb 7D8; Bivalent Analyte) | ka1 (mAb 7D8; Bivalent Analyte) [M⁻¹ s⁻¹] | ka2 (1/RUs) (mAb 7D8; Bivalent Analyte) | kd1 (mAb 7D8; Bivalent Analyte) [s⁻¹] | kd2 (mAb 7D8; Bivalent Analyte) [s⁻¹] | KA (mAb 7D8; Langmuir with Mass Transfer) [M⁻¹] | Req (RU) (mAb 7D8; Langmuir with Mass Transfer) | Rmax (RU) (mAb 7D8; Langmuir with Mass Transfer) | ka (mAb 7D8; Langmuir with Mass Transfer) [M⁻¹ s⁻¹] | kd (mAb 7D8; Langmuir with Mass Transfer) [s⁻¹] | kobs (mAb 7D8; Langmuir with Mass Transfer) [s⁻¹] | kt (RU/(M*s)) (mAb 7D8; Langmuir with Mass Transfer) | Kd (mAb 7D8; Langmuir with Mass Transfer) [nM] | KA (mAb 7D8; Langmuir) [M⁻¹] | Req (RU) (mAb 7D8; Langmuir) | Rmax (RU) (mAb 7D8; Langmuir) | ka (mAb 7D8; Langmuir) [M⁻¹ s⁻¹] | kd (mAb 7D8; Langmuir) [s⁻¹] | kobs (mAb 7D8; Langmuir) [s⁻¹] | Kd (mAb 7D8; Langmuir) [nM] | also measured
GAQGAQAGQAGQAQGAQGAQAGQAGQ (GAQGAQAGQAGQAQGAQGAQAGQAGQ; Peptide p5G) | – | – | – | – | – | – | – | – | – | – | – | – | – | – | – | – | – | – | – | – | capture of biotinylated peptide by adsorbed mAb clones [1]: not captured
KAQKAQAKQAKQAQKAQKAQAKQAKQAQKAQKAQAKQAKQ (KAQKAQAKQAKQAQKAQKAQAKQAKQAQKAQKAQAKQAKQ; Peptide p5+14) | – | – | – | – | – | – | – | – | – | – | – | – | – | – | – | – | – | – | – | – | staining of ATTR amyloid by directly biotinylated peptide (no mAb) ([2]; compared with Congo red): co-localizes with amyloid deposits; staining of ATTR amyloid, non-biotinylated peptide pre-targeting then biotinylated anti-peptide mAb ([2]; peptide ˜3 μg/mL, mAb clones 4, 5, 12, or 13 at 3 μg/mL): the amyloid was readily visualized; binding of ^125I-peptide to amyloid samples ([3]; 0.15 M NaCl): bound equally well; binding of ^125I-peptide to amyloid samples ([3]; 1.0 M NaCl): bound equally well; co-localization of ^125I-11-1F4 with AA amyloid after peptide pre-targeting (AA amyloid): little evidence of ^125I-11-1F4 co-localized with the amyloid
RAQRAQARQARQAQRAQRAQARQARQ (RAQRAQARQARQAQRAQRAQARQARQ; Peptide p5R) | – | – | – | – | – | – | – | – | – | – | – | – | – | – | – | – | – | – | – | – | capture of biotinylated peptide by adsorbed mAb clones [1]: not captured

More lines, main results first:

Rmax (RU) (mAb 7D8; Bivalent Analyte) | ka1 (mAb 7D8; Bivalent Analyte) [M⁻¹ s⁻¹] | ka2 (1/RUs) (mAb 7D8; Bivalent Analyte) | kd1 (mAb 7D8; Bivalent Analyte) [s⁻¹] | kd2 (mAb 7D8; Bivalent Analyte) [s⁻¹] | KA (mAb 7D8; Langmuir with Mass Transfer) [M⁻¹] | Req (RU) (mAb 7D8; Langmuir with Mass Transfer) | Rmax (RU) (mAb 7D8; Langmuir with Mass Transfer) | ka (mAb 7D8; Langmuir with Mass Transfer) [M⁻¹ s⁻¹] | kd (mAb 7D8; Langmuir with Mass Transfer) [s⁻¹] | kobs (mAb 7D8; Langmuir with Mass Transfer) [s⁻¹] | kt (RU/(M*s)) (mAb 7D8; Langmuir with Mass Transfer) | Kd (mAb 7D8; Langmuir with Mass Transfer) [nM] | KA (mAb 7D8; Langmuir) [M⁻¹] | Req (RU) (mAb 7D8; Langmuir) | Rmax (RU) (mAb 7D8; Langmuir) | ka (mAb 7D8; Langmuir) [M⁻¹ s⁻¹] | kd (mAb 7D8; Langmuir) [s⁻¹] | kobs (mAb 7D8; Langmuir) [s⁻¹] | Kd (mAb 7D8; Langmuir) [nM] | Substance | also measured
861 | 609000 | 2.38E−03 1/RUs | 0.0736 | 0.0774 | 6.33e+08 | 191 | 302 | 8.96e+06 | 0.0137 | 0.0372 | 1.43E+09 RU/(M*s) | 1.58 | 4.43e+08 | 191 | 351 | 2.95e+06 | 0.00667 | 0.0146 | 2.26 | KAQKAQAKQAKQAQKAQKAQAKQAKQGGGHEDT [p76, KAQKAQAKQAKQAQKAQKAQAKQAKQGGGHEDT] | –
5.43E+03 | 44600 | 3.76E−05 1/RUs | 0.0295 | 0.0224 | 3e+08 | 192 | 429 | 1.96e+08 | 0.653 | 1.18 | 4.57E+08 RU/(M*s) | 3.33 | 1.04e+07 | 223 | 8.16E+03 | 51900 | 0.00498 | 0.00512 | 96 | KAQKAQAKQAKQAQKAQKAQAKQAKQGPGHEDT [p77, KAQKAQAKQAKQAQKAQKAQAKQAKQGPGHEDT] | –
9.16E+03 | 63700 | 1.10E−07 1/RUs | 0.00972 | 2.63e-05 | 6.85e+08 | 326 | 502 | 1.29e+07 | 0.0188 | 0.0536 | 1.65E+09 RU/(M*s) | 1.46 | 4.05e+08 | 331 | 633 | 2.42e+06 | 0.00598 | 0.0125 | 2.47 | KAQKAQAKQAKQAQKAQKAQAKQAKQVTVHEDT [p78, KAQKAQAKQAKQAQKAQKAQAKQAKQVTVHEDT] | –
